According to patent publication US20240336574A1 (LATIGO BIOTHERAPEUTICS, INC., priority 2021, published 2024):
Where two headings read alike, the source gives them in different places.

Molecular target: T1, recombinant human NaV1.8 stably transfected HEK cells (Homo sapiens, UniProt Q9Y5Y9)
T1 construct: expressed in transfected cells; host or cells: HEK cells, stably transfected
Experiment: Compound profiling on NaV1.8, human NaV1.8 cell line, SyncroPatch384PE automated patch clamp assay (Example 102, first set of compounds, Table 16)
Assay type: cell-based
Details: human NaV1.8 HEK cells, Table 16 (first set of compounds)
Procedure, shortened: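 IC50s come from two read-outs: resting-state block (P1, 10 mV step from −120 mV) and inactivated-state block (P2, after 10 s at −40 mV), scaled between DMSO and 250 μM tetracaine. Compounds (20–0.001 μM final, 1:3 steps) were applied for 5 min, 15 s sweeps. Cells kept at 30 °C the day before.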

[1] = inactivated state block (P2 measurement), read-out: P2IC50
[2] = resting state block (P1 measurement), read-out: P1IC50

T1 sequence (Q9Y5Y9 whole entry): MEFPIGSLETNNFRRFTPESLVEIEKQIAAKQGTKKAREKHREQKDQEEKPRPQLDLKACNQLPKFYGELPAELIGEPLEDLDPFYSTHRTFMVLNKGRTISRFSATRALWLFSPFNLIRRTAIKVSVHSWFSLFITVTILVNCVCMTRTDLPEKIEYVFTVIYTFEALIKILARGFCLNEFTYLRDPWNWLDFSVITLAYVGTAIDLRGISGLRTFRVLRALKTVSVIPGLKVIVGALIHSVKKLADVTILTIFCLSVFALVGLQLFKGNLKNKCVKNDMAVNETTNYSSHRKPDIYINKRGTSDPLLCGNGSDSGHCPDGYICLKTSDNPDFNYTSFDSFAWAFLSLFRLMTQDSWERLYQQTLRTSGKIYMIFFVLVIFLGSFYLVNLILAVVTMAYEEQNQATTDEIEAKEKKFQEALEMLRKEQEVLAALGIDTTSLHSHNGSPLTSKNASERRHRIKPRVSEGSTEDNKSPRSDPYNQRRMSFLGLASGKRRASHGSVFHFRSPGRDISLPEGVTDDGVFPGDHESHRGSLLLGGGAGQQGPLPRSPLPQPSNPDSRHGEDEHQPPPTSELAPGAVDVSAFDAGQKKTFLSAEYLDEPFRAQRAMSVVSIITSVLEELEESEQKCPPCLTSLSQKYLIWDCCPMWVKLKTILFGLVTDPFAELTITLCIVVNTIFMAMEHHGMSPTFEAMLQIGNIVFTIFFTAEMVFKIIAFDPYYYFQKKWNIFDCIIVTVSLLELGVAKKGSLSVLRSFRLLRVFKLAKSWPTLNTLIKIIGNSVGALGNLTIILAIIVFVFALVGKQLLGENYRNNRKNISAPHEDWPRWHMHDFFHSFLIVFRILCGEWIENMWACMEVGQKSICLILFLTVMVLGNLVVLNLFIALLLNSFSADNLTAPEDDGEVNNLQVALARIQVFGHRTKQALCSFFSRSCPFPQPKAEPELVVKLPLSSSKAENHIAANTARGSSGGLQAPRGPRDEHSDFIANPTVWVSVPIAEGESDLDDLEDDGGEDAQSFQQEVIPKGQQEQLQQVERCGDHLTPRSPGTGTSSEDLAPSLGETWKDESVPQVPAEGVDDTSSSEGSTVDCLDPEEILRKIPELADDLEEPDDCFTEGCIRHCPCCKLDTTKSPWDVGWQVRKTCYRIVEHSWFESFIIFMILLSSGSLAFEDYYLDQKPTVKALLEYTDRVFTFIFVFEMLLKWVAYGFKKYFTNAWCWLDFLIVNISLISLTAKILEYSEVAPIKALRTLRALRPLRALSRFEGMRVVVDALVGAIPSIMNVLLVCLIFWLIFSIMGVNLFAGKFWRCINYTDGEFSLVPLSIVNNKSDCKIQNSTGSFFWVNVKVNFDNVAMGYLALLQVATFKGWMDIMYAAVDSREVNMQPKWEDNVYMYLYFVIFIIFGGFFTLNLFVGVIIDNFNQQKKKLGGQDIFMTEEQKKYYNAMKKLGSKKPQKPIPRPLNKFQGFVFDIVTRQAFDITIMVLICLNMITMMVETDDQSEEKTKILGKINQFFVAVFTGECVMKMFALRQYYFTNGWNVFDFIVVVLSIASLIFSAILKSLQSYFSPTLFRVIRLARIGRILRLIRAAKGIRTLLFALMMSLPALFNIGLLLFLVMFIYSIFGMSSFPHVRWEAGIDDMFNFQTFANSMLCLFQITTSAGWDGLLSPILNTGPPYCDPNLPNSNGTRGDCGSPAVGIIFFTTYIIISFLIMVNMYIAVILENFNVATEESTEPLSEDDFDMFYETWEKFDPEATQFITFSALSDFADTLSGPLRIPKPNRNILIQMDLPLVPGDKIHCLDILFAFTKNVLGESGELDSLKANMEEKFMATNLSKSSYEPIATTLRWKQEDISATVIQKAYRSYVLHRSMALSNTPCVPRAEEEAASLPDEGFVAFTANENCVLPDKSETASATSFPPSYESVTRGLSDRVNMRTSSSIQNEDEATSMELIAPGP

IC50 [1] [µM]	IC50 [2] [µM]	SMILES
0.02 to 0.04	0.04 to 0.2	COc1cc(C#N)ccc1Oc1nnc(C(F)(F)F)c(C)c1C(=O)Nc1ccc(C(N)=O)nc1 [Compound 1539, N-(6-carbamoyl-3-pyridyl)-3-(4-cyano-2-methoxy-phenoxy)-5-methyl-6-(trifluoromethyl)pyridazine-4-carboxamide]
≤ 0.02	≤ 0.02	COc1c(Oc2nnc(C(F)(F)F)c(C)c2C(=O)Nc2cccnc2)ccc(F)c1F [Compound 1475, 3-(3,4-difluoro-2-methoxy-phenoxy)-5-methyl-N-(3-pyridyl)-6-(trifluoromethyl)pyridazine-4-carboxamide]
0.02 to 0.04	0.02 to 0.04	CC(C)Oc1ccc(Oc2ncc(C(F)(F)F)cc2C(=O)Nc2ccc(C(N)=O)cc2)c(F)c1F [Compound 1711]
0.04 to 0.2	0.02 to 0.04	Cc1c(C(F)(F)F)nnc(Oc2ccc(Cl)cc2)c1C(=O)Nc1cccc(S(C)(=N)=O)c1 (stereo not drawn) [Compound 22]
≤ 0.02	≤ 0.02	Cc1c(C(F)(F)F)nnc(Oc2ccc(Cl)cc2F)c1C(=O)Nc1cccc(S(C)(=N)=O)c1 (single isomer, unassigned) [Compound 1471, 3-(4-chloro-2-fluoro-phenoxy)-5-methyl-N-[3-(methylsulfonimidoyl)phenyl]-6-(trifluoromethyl)pyridazine-4-carboxamide]
≤ 0.02	≤ 0.02	Cc1c(C(F)(F)F)nnc(Oc2ccc(OC(C)C)c(F)c2F)c1C(=O)Nc1cccc(S(C)(=O)=O)c1 [Compound 1424]
≤ 0.02	≤ 0.02	Cc1nc(F)ccc1Oc1ncc(C(F)(F)F)c(C)c1C(=O)Nc1cccc([S@@](C)(=N)=O)c1 [Compound 1560, (S)-2-((6-fluoro-2-methylpyridin-3-yl)oxy)-4-methyl-N-(3-(S-methylsulfonimidoyl)phenyl)-5-(trifluoromethyl)nicotinamide]
0.04 to 0.2	0.04 to 0.2	Cc1c(C(F)(F)F)nnc(Oc2ccc(Cl)cc2F)c1C(=O)Nc1ccc(C(N)=O)cc1 [Compound 1404]
≤ 0.02	≤ 0.02	Cc1c(C(F)(F)F)nnc(Oc2ccc(OC(C)C)c(F)c2F)c1C(=O)Nc1cccc(C(N)=O)c1 [Compound 1409]
≤ 0.02	≤ 0.02	COc1cc(C#N)ccc1Oc1nnc(-c2cnc(C(F)(F)F)s2)c(C)c1C(=O)Nc1cccc(S(C)(=N)=O)c1 (stereo not drawn) [Compound 1459, 3-(4-cyano-2-methoxy-phenoxy)-5-methyl-N-[3-(methylsulfonimidoyl)phenyl]-6-[2-(trifluoromethyl)thiazol-5-yl]pyridazine-4-carboxamide]
0.2 to 0.5	0.2 to 0.5	Cc1cc(F)ccc1Oc1nnc(C(F)(F)F)c(N2CCOCC2)c1C(=O)Nc1cccc([S@@](C)(=N)=O)c1 [Compound 1524, (S)-3-(4-fluoro-2-methylphenoxy)-N-(3-(S-methylsulfonimidoyl)phenyl)-5-morpholino-6-(trifluoromethyl)pyridazine-4-carboxamide]
≤ 0.02	≤ 0.02	Cc1c(Oc2ncc(C(F)(F)F)cc2C(=O)Nc2cccc(S(C)(=N)=O)c2)ccc(OC(F)(F)F)c1F (single isomer, unassigned) [Compound 1714]
0.2 to 0.5	0.2 to 0.5	Cc1cc(F)ccc1Oc1nnc(C(F)(F)F)c(N2CCCCC2)c1C(=O)Nc1cccc([S@@](C)(=N)=O)c1 [Compound 1732, (S)-3-(4-fluoro-2-methylphenoxy)-N-(3-(S-methylsulfonimidoyl)phenyl)-5-(piperidin-1-yl)-6-(trifluoromethyl)pyridazine-4-carboxamide]
≤ 0.02	≤ 0.02	Cc1cc(F)ccc1Oc1nnc(C(F)(F)F)c(C)c1C(=O)Nc1cccc(S(N)(=O)=O)c1 [Compound 1466, 3-(4-fluoro-2-methylphenoxy)-5-methyl-N-(3-sulfamoylphenyl)-6-(trifluoromethyl)pyridazine-4-carboxamide]
0.04 to 0.2	0.04 to 0.2	COc1cc(C#N)ccc1Oc1nnc(C(F)(F)F)c(C)c1C(=O)Nc1cccnc1 [Compound 1543, 3-(4-cyano-2-methoxy-phenoxy)-5-methyl-N-(3-pyridyl)-6-(trifluoromethyl)pyridazine-4-carboxamide]
0.2 to 0.5	0.2 to 0.5	CCOC(=O)c1cc(NC(=O)c2c(Oc3ccc(F)cc3C)nnc(C(F)(F)F)c2C)cc(S(C)(=O)=O)c1 [Compound 1429]
0.2 to 0.5	0.2 to 0.5	CC(C)Oc1ccc(Oc2ncc(C(F)(F)F)cc2C(=O)Nc2ccc(-c3ncc[nH]3)cc2)c(F)c1F [Compound 1649]

Continued, compound first:

SMILES	IC50 [1] [µM]	IC50 [2] [µM]
CSc1cccc(Oc2ncc(C(F)(F)F)cc2C(=O)Nc2cccc(S(C)(=O)=O)c2)c1 [Compound 1656]	0.04 to 0.2	0.04 to 0.2
CS(=O)(=O)c1cccc(NC(=O)c2cc(C(F)(F)F)cnc2Oc2ccc(OC(F)(F)F)cc2F)c1 [Compound 1661]	≤ 0.02	≤ 0.02
COc1cc(C#N)ccc1Oc1nnc(C(F)(F)F)c(C)c1C(=O)Nc1cnc(C(N)=O)s1 [Compound 1538, 5-[[3-(4-cyano-2-methoxy-phenoxy)-5-methyl-6-(trifluoromethyl)pyridazine-4-carbonyl]amino]thiazole-2-carboxamide]	0.04 to 0.2	0.04 to 0.2
CSc1cccc(NC(=O)c2cc(Br)cnc2Oc2ccc(F)cc2C)c1 [Compound 1577]	0.2 to 0.5	0.2 to 0.5
Cc1nc(C#N)ccc1Oc1ncc(C(F)(F)F)cc1C(=O)Nc1cccc(S(C)(=N)=O)c1 (stereo not drawn) [Compound 1701]	0.02 to 0.04	0.02 to 0.04
COc1ncc(C#N)cc1Oc1ncc(C(F)(F)F)cc1C(=O)Nc1cccc(S(C)(=N)=O)c1 (stereo not drawn) [Compound 1623]	0.2 to 0.5	0.2 to 0.5
COc1cc(F)c(F)cc1Oc1ncc(C(F)(F)F)cc1C(=O)Nc1cccc(S(C)(=N)=O)c1 (stereo not drawn) [Compound 1617]	0.02 to 0.04	0.02 to 0.04
CCOc1ccc(Oc2ncc(C(F)(F)F)cc2C(=O)Nc2cccc(S(C)(=N)=O)c2)cc1 (stereo not drawn) [Compound 1609]	0.04 to 0.2	0.04 to 0.2
COc1ccc(Oc2ncc(C(F)(F)F)cc2C(=O)Nc2cccc(S(C)(=N)=O)c2)cc1F (stereo not drawn) [Compound 1640]	0.2 to 0.5	0.2 to 0.5
COc1cc(C#N)ccc1Oc1nnc(-c2ccc(C)nc2)c(C)c1C(=O)Nc1cccc(S(C)(=N)=O)c1 (stereo not drawn) [Compound 1455, 3-(4-cyano-2-methoxy-phenoxy)-5-methyl-6-(6-methyl-3-pyridyl)-N-[3-(methylsulfonimidoyl)phenyl]pyridazine-4-carboxamide]	0.2 to 0.5	0.2 to 0.5
CS(=N)(=O)c1cccc(NC(=O)c2cc(C(F)(F)F)cnc2Oc2ccc(C(F)(F)F)cc2)c1 (stereo not drawn) [Compound 1564, N-[3-(methylsulfonimidoyl)phenyl]-5-(trifluoromethyl)-2-[4-(trifluoromethyl)phenoxy]pyridine-3-carboxamide]	0.04 to 0.2	0.02 to 0.04
COc1nc(C#N)ccc1Oc1ncc(C(F)(F)F)cc1C(=O)Nc1cccc([S@](C)(=N)=O)c1 [Compound 1655]	≤ 0.02	≤ 0.02
CS(=O)(=O)c1cccc(NC(=O)c2cc(C(F)(F)F)cnc2OCCC(F)(F)F)c1 [Compound 1604]	0.2 to 0.5	0.04 to 0.2
COc1ccc(C#N)cc1Oc1ncc(C(F)(F)F)cc1C(=O)Nc1cccc(S(C)(=N)=O)c1 (stereo not drawn) [Compound 1620]	0.2 to 0.5	0.2 to 0.5
N#Cc1cc(F)ccc1Oc1ncc(C(F)(F)F)cc1C(=O)Nc1cccc(C(N)=O)c1 [Compound 1692]	0.04 to 0.2	0.04 to 0.2
COc1cc(C#N)ccc1Oc1ncc(C(F)(F)F)cc1C(=O)Nc1cccc(S(N)(=O)=O)c1 [Compound 1561, 2-(4-cyano-2-methoxyphenoxy)-N-(3-sulfamoylphenyl)-5-(trifluoromethyl)pyridine-3-carboxamide]	≤ 0.02	≤ 0.02
Cc1nc(C#N)ccc1Oc1ncc(C(F)(F)F)cc1C(=O)Nc1cccc(C(N)=O)c1 [Compound 1700]	0.2 to 0.5	0.2 to 0.5
COc1ccc(Oc2ncc(C(F)(F)F)cc2C(=O)Nc2cccc(S(C)(=N)=O)c2)cc1C#N (stereo not drawn) [Compound 1591]	0.2 to 0.5	0.2 to 0.5
COc1cc(C#N)ccc1Oc1nnc(-c2cncs2)c(C)c1C(=O)Nc1cccc(S(C)(=N)=O)c1 (stereo not drawn) [Compound 1460, 3-(4-cyano-2-methoxy-phenoxy)-5-methyl-N-[3-(methylsulfonimidoyl)phenyl]-6-thiazol-5-yl-pyridazine-4-carboxamide]	0.2 to 0.5	0.2 to 0.5
Cc1cc(F)ccc1Oc1ncc(C#N)cc1C(=O)Nc1cccc(S(C)(=N)=O)c1 (stereo not drawn) [Compound 1578]	0.2 to 0.5	0.2 to 0.5
COc1cc(C#N)ccc1Oc1nnc(-c2ccc(C)cc2)c(C)c1C(=O)Nc1cccc([S@](C)(=N)=O)c1 [Compound 1529, 3-(4-cyano-2-methoxyphenoxy)-N-{3-[(R)-imino(methyl)oxo-λ6-sulfanyl]phenyl}-5-methyl-6-(4-methylphenyl)pyridazine-4-carboxamide]	≤ 0.02	≤ 0.02
Cc1cc(F)ccc1Oc1nccc(C(F)(F)F)c1C(=O)Nc1cccc(S(C)(=N)=O)c1 (stereo not drawn) [Compound 1650]	0.04 to 0.2	0.04 to 0.2
CS(=N)(=O)c1cccc(NC(=O)c2cc(C(F)(F)F)cnc2Oc2ccc(OC(F)F)c(F)c2)c1 (stereo not drawn) [Compound 1644]	≤ 0.02	≤ 0.02
COc1c(Oc2ncc(C#N)cc2C(=O)Nc2cccc(C(N)=O)c2)ccc(F)c1F [Compound 1724, N-(3-carbamoylphenyl)-5-cyano-2-(3,4-difluoro-2-methoxy-phenoxy)pyridine-3-carboxamide]	0.04 to 0.2	0.04 to 0.2
Cc1c(C#N)ccc(Oc2ncc(C(F)(F)F)cc2C(=O)Nc2cccc(C(N)=O)c2)c1F [Compound 1697]	0.02 to 0.04	0.02 to 0.04
